Experimental findings from patent US9359445B2, “Compositions and methods for treating neurological disorders” (The J. David Gladstone Institutes, priority 2010, dated 2016) are described below.

One test relates to Venus-PKD1. The test can be described thus: Venus-PKD1 translocation to dendritic puncta (puncta index) in transfected neurons. As to conditions: for effect on glutamate-induced Venus-PKD1 puncta formation: drug applied with glutamate; for Venus-PKD1 translocation / puncta formation induced by the substance: substance applied alone, glutamate 30 μM, ACPD 500 μM, K+ 55 mM in the presence of APV. It is filed as cell-based, mouse.

In another test the test system is PKD1. The test can be described thus: PKD1 phosphorylation (activation) in stimulated mouse cortical neurons, western blot. The test is classed as cell-based. The conditions noted are these: for effect on glutamate-induced PKD1 phosphorylation: antagonist applied with glutamate; for PKD1 phosphorylation at activation loop (S744/8) and autophosphorylation (S916) sites after stimulation: mouse cortical cultures, substance applied alone, 10 min. For orientation: Immunoblotting shows a protein as a band on a membrane.

A further test concerns pH-GluR2. In words: pHluorin GluR2 recycling assay in mouse cortical neurons. It is filed as cell-based. The source says:
Rat GluR2 tagged with superecliptic pHluorin was cloned into pGW1 mammalian expression vector. mCherry was subcloned to replace enhanced green fluorescent protein (EGFP) in FUGW PKD1 shRNA and control vectors. mCherry served as a morphology marker to monitor the overall health of the cell. pHluorin-GluR2 and PKD1 shRNA or mutant control were transfected into mouse cortical neurons with Lipofectamine 2000 (Invitrogen). At 12 DIV, neurons were imaged on a Zeiss LSM 510 confocal microscope with a 40× water immersion lens in HBS as described above, only nimodipine was excluded. After 20 min of baseline imaging, 30 μM glutamate and 10 μM glycine were washed on to cells by gravity flow perfusion for 5 min, followed by washout with control HBS solution. Images were collected every 5 min. Average pixel intensity of pH-GluR2 in the cell body was calculated in MetaMorph, and background was measured in a cell-free region of the image and subtracted from fluorescence intensities before further calculations. Fractional change in fluorescent intensity (ΔF/F0) was calculated as Ft−F0/F0, where Ft is pHGluR2 intensity at time t and F0 is the average pH-GluR2 fluorescence intensity at four points before glutamate application.

Entries after “also recorded” stand apart in the source; their conditions may differ.

`Cn1c2ccccc2c2c3c(c4c5ccccc5n(CCC#N)c4c21)CNC3=O` [Gö6976]: the “effect on glutamate-induced Venus-PKD1 puncta formation” value in the test with Venus-PKD1 was “had no effect”.

For the molecule `CN(C)CCCn1cc(C2=C(c3c[nH]c4ccccc34)C(=O)NC2=O)c2ccccc21` [GF109203X], the “effect on glutamate-induced Venus-PKD1 puncta formation” value was “had no effect” in the test with Venus-PKD1 and “did not prevent PKD1 translocation” in the test on Venus-PKD1 (listed as GF 109203×).

Regarding `NC(CCCP(=O)(O)O)C(=O)O` (racemic) [APV, D,L-2-amino-5-phosphonovaleric acid], in the test with PKD1, the “effect on glutamate-induced PKD1 phosphorylation” value was “did not block phosphorylation”. Moreover, in the test on Venus-PKD1, the “effect on glutamate-induced Venus-PKD1 puncta formation” value is “blocked”.

Turning to glutamate, the “duration of glutamate-induced PKD1 phosphorylation” value with PKD1 (glutamate 30 μM, time of stimulation) is given as “up to 60 min”. Moreover, the “PKD1 phosphorylation at activation loop (S744/8) and autophosphorylation (S916) sites after stimulation” value (“PKD1 phosphorylation at activation loop” for short) with PKD1 (glutamate 30 μM) was “rapidly and robustly phosphorylated”. The “Venus-PKD1 translocation / puncta formation induced by the substance” value with Venus-PKD1 is on record as “translocated to discrete puncta throughout the dendrites”. The pH-GluR2 fluorescence intensity in the test on pH-GluR2 (after 5 minutes of glutamate application) is listed as ~80 % of baseline. The pH-GluR2 fluorescence recovery in the test on pH-GluR2 (fifty-five minutes after glutamate stimulation, neurons with endogenous PKD1) was > 90 % of baseline. Also, in the test with pH-GluR2 (immediately after glutamate stimulation), the “pH-GluR2 fluorescence intensity at maximal endocytosis” value is on record as 20 % of baseline.

Take `COc1ccc2c(c1)CC[C@@H]1[C@@H]2CC[C@]2(C)[C@@H](NCCCCCCN3C(=O)C=CC3=O)CC[C@@H]12` [U73122]: in the test with Venus-PKD1, the “effect on glutamate-induced Venus-PKD1 puncta formation” value is “blocked glutamate-induced puncta formation; also recorded: blocks puncta formation”.

In the case of `COc1ccc2c(c1)c(C1=C(c3c[nH]c4ccccc34)C(=O)NC1=O)cn2CCCN(C)C` [Gö6983], in the test with Venus-PKD1, the “effect on glutamate-induced Venus-PKD1 puncta formation” value is recorded as “did not prevent PKD1 translocation; also recorded: had no effect”.

`CC(N)(C(=O)O)c1ccc(C(=O)O)cc1` (stereo not drawn) [MCPG, alpha-methyl-4-carboxyphenylglycine]: in the test with PKD1, the “effect on glutamate-induced PKD1 phosphorylation” value is “reduced glutamate-induced PKD1 phosphorylation”. Also, the “effect on glutamate-induced Venus-PKD1 puncta formation” value in the test with Venus-PKD1 was “unaffected”.

On to `CN[C@H](CC(=O)O)C(=O)O` [NMDA, N-methyl-D-aspartate], for which the “PKD1 phosphorylation at activation loop” value with PKD1 (glutamate 30 μM) is “did not stimulate autophosphorylation”. The “Venus-PKD1 translocation / puncta formation induced by the substance” value with Venus-PKD1 is on record as “puncta formation was induced”.

With `N[C@@]1(C(=O)O)CC[C@@H](C(=O)O)C1` [ACPD, (1S,3R)-1-aminocyclopentane-1,3-dicarboxylic acid], the “PKD1 phosphorylation at activation loop” value in the test with PKD1 (glutamate 30 μM) is on record as “induced phosphorylation”. Besides, the “Venus-PKD1 translocation / puncta formation induced by the substance” value with Venus-PKD1 is “did not induce translocation”.

In the case of `N[C@H](C(=O)O)c1cc(O)cc(O)c1` [DHPG, (S)-3,5-dihydroxyphenylglycine], in the test on PKD1 (glutamate 30 μM), the “PKD1 phosphorylation at activation loop” value is listed as “induced phosphorylation”.

B1: BDNF: brain-derived neurotophic factor, activates TrkB receptors (protein, UniProt P23560 19-247, looked up)
Neurotrophic factor BDNF …: APMKEANIRGQGGLAYPGVRTHGTLESVNGPKAGSRGLTSLADTFEHVIEELLDEDQKVRPNEENNKDADLYTSRVMLSSQVPLEPPLLFLLEEYKNYLDAANMSMRVRRHSDPARRGELSVCDSISEWVTAADKKTAVDMSGGTVTVLEKVPVSKGQLKQYFYETKCNPMGYTKEGCRGIDKRHWNSQCRTTQSYVRALTMDSKKRIGWRFIRIDTSCVCTLTIKRGR
For B1, the “PKD1 phosphorylation at activation loop” value in the test on PKD1 (glutamate 30 μM) was “did not activate PKD1”.
